Assay results taken from ChEMBL document CHEMBL1201862, “PubChem BioAssay data set” (2004).
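1) Cells in 96-well plates. 2) Compound, 48 h, 5 concentrations. 3) Linear interpolation between surrounding doses. 4) Unreached endpoint = highest concentration. At the GI50, growth is halved.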 Activity calls are given as the source filed them. Rule as the data show it: active = GI50 up to about 1.1 µM and inactive = higher.

What was measured:
Assay in all cases: inhibition of tumour cell growth, NCI panel, 48 h
[1] = system: BT-549
[2] = system: DMS-273
[3] = system: LXFL 529
[4] = system: M19-MEL
[5] = system: DLD-1
[6] = system: DMS-114
[7] = system: XF498
[8] = system: RXF 631
[9] = system: HOP-18

SMILES | GI50 [1] | GI50 [2] | GI50 [3] | GI50 [4] | GI50 [5] | GI50 [6] | other results
CC(CC(C)(C)[N+](C)(C)C)[N+](C)(C)C (configuration not stated) | > 100 µM (inactive) |  |  |  |  |  | 
CCC(CO)Nc1nc2c(c(=O)n(C)c(=O)n2C)n1CCO (configuration not stated) |  | > 100 µM (inactive) | > 100 µM (inactive) | > 100 µM (inactive) |  |  | 
CC(C#N)c1cn(S(=O)(=O)c2ccccc2)c2ccccc12 (configuration not stated) |  | 45.6 µM (inactive) | 34.9 µM (inactive) | 42.5 µM (inactive) | 55.3 µM (inactive) | 46.5 µM (inactive) | GI50 [7]: > 100 µM (inactive)
O=C(Nc1cccc([N+](=O)[O-])c1)C(=O)C(C(=O)c1ccccc1-c1ccccc1)C1OC(=O)c2ccccc21 (configuration not stated) |  |  | 13.1 µM (inactive) | 15.9 µM (inactive) | 19.9 µM (inactive) | 14.5 µM (inactive) | GI50 [8]: 22 µM (inactive); GI50 [7]: 20.4 µM (inactive)
O=C(/C=C/c1ccccc1)CCN1CCOCC1 | 12.6 µM (inactive) | 16.9 µM (inactive) | 2.78 µM (inactive) | 14.6 µM (inactive) | 9.29 µM (inactive) | 9.25 µM (inactive) | GI50 [9]: 17.7 µM (inactive); GI50 [7]: 14.7 µM (inactive)
COC1(OC)CCN(Cc2ccccc2)C1=O | 17.2 µM (inactive) |  |  |  |  |  | 
COc1cc2c(c3c1C=CCO3)C(=O)c1ccccc1C2=O |  | 49.1 µM (inactive) | 31.2 µM (inactive) | 76.6 µM (inactive) | 24.2 µM (inactive) | 53.1 µM (inactive) | GI50 [9]: 83.8 µM (inactive)
Nc1ccc(C(=O)N/C(=C\C=C\c2ccco2)c2nc3c(O)nc(S)nc3[nH]2)cc1 |  | > 100 µM (inactive) | > 100 µM (inactive) | > 100 µM (inactive) | > 100 µM (inactive) |  | GI50 [8]: > 100 µM (inactive); GI50 [7]: > 100 µM (inactive)
CNc1ccc(C(=O)CC(O)CCC(C)C2OC(=O)CC(O)CC(=O)CC(O)CC(O)CC(O)CC(O)CC3(O)CC(O)C(C(=O)NCCN(C)C)C(CC(OC4OC(C)C(O)C(NC(=O)CN5CCN(C)CC5)C4O)\C=C/C=C\C=C/C=C/C=C/C=C\C=C/C2C)O3)cc1 (configuration not stated) | 11.2 µM (inactive) |  |  |  |  |  | 
NC(=O)NOCC1NC(=O)NC1=O (configuration not stated) | > 100 µM (inactive) |  |  |  |  |  | 
COc1ccc(C(=O)O)c(Br)c1OCc1ccccc1 |  | > 100 µM (inactive) | > 100 µM (inactive) | > 100 µM (inactive) | > 100 µM (inactive) | > 100 µM (inactive) | GI50 [7]: > 100 µM (inactive)
CC1=NN(c2ccccc2)C(=O)/C1=C\c1c(C)[nH]n(-c2ccccc2)c1=O | > 100 µM (inactive) |  |  |  |  |  | 
CN(C)c1ccc(C(Cc2ccccc2)C2NC(=S)NC2=O)cc1 (configuration not stated) | > 100 µM (inactive) |  |  |  |  |  | 
c1ccc2[nH]c3nc4ccccc4c-3cc2c1 | 0.512 µM (active) |  |  |  |  |  | 
CS(=O)(=O)OCC1OC(n2ccc(NC(=O)c3ccccc3)nc2=O)CC1OS(C)(=O)=O (configuration not stated) | > 100 µM (inactive) |  |  |  |  |  | 
C/C=C(/C)C(=O)O[C@@H]1CCN2CC[C@H](COC(=O)/C(=C/C)CO)C12 (some centres not stated) | > 100 µM (inactive) |  |  |  |  |  | 
O=C1Cc2c(-c3ccccc3)cc(-c3ccc(Cl)cc3)nc2-c2ccccc2N1 | 17.1 µM (inactive) |  |  |  |  |  | 
CC(=O)NC(CS/N=N/c1[nH]cnc1C(N)=O)C(=O)O (configuration not stated) | 53 µM (inactive) |  |  |  |  |  | 
CC(=O)Nc1nnc(S(=O)(=O)NC(=S)Nc2ccc(Cl)cc2)s1 | > 100 µM (inactive) |  |  |  |  |  | 
COC(=O)c1cc(OCc2cc(OCc3ccc(Br)cc3)cc(OCc3ccc(Br)cc3)c2)cc(OCc2cc(OCc3ccc(Br)cc3)cc(OCc3ccc(Br)cc3)c2)c1 | > 100 µM (inactive) |  |  |  |  |  | 

SMILES | GI50 [1] | GI50 [2] | GI50 [3] | GI50 [4] | GI50 [5] | GI50 [6] | other results
CC1=CC(/C=C(\C)CCCc2ccoc2)C2(OC(=O)C(C)=C2O)[C@H]2C1CC[C@@H]2C (some centres not stated) |  | > 10 µM (inactive) | 18.7 µM (inactive) | 29 µM (inactive) | 25.5 µM (inactive) | 22.1 µM (inactive) | GI50 [9]: 14.2 µM (inactive)
CC(=O)Oc1c2c(c(O)c3ccccc13)C(n1cnc3c(ncn3C3OC(CO)C4OC(C)(C)OC43)c1=N)CCC2 (configuration not stated) |  | 18.1 µM (inactive) |  | 11.6 µM (inactive) | 13.1 µM (inactive) | 6.44 µM (inactive) | GI50 [9]: 20.3 µM (inactive)
O=C1NC2OC(CO)C(O)C(O)C2O1 (configuration not stated) |  | > 100 µM (inactive) | > 100 µM (inactive) | > 100 µM (inactive) | > 100 µM (inactive) | > 100 µM (inactive) | GI50 [9]: > 100 µM (inactive)
COc1cc2c(cc1O)NC(=O)[C@@H]1C[C@@H](O)CN1C2=O | 86.1 µM (inactive) |  |  |  |  |  | 
COc1cc(C=O)cc(O)c1O |  | > 100 µM (inactive) | > 100 µM (inactive) | > 100 µM (inactive) | > 100 µM (inactive) | > 100 µM (inactive) | 
Cc1ccc(SSc2ccc(C)cc2C(=O)O)c(C(=O)O)c1 |  | > 100 µM (inactive) | > 100 µM (inactive) | > 100 µM (inactive) | > 100 µM (inactive) |  | GI50 [8]: > 100 µM (inactive)
O=C1OC(C2Cc3ccc4c(c3C2=O)CCC4)c2ccccc21 (configuration not stated) | 42.1 µM (inactive) |  |  |  |  |  | 
Cc1ccc([N+](=O)[O-])cc1S(=O)(=O)Nc1ccc(C2=NN(C(=O)c3ccccc3)C(c3ccccc3)C2)cc1 (configuration not stated) | 22.6 µM (inactive) |  |  |  |  |  | 
CCN(CC)CC(C)C(=O)/C=C/c1ccc(C)cc1 (configuration not stated) |  | 2.23 µM (inactive) | 1.76 µM (inactive) | 1.67 µM (inactive) | 1.67 µM (inactive) | 1.77 µM (inactive) | GI50 [9]: 10.5 µM (inactive); GI50 [7]: 1.54 µM (inactive)
O=c1c2cc([N+](=O)[O-])ccc2n2n1Cc1ccccc1C2 | 76.2 µM (inactive) |  |  |  |  |  | 
c1ccc2c(c1)c(N1CCCCC1)cc1nc3c(cc(N4CCCCC4)c4ccccc43)nc12 | > 100 µM (inactive) |  |  |  |  |  | 
OCC1c2ccccc2-n2nc(-c3ccccc3)c(O)c21 (configuration not stated) | 20 µM (inactive) |  |  |  |  |  | 
COC(=O)Nc1nc2cc(Oc3ccc4nc(NC(=O)OC)[nH]c4c3)ccc2[nH]1 | 7.01 µM (inactive) |  |  |  |  |  | 
CCCCCc1cc(OC(=O)c2c(O)cc(OC)cc2CCCCC)cc(O)c1C(=O)O |  | 16.1 µM (inactive) | 16.5 µM (inactive) | 18.4 µM (inactive) | 13 µM (inactive) | 14.7 µM (inactive) | GI50 [7]: 15.3 µM (inactive)
c1cc(C[S+]2CCCC2)oc1C[S+]1CCCC1 | > 100 µM (inactive) |  |  |  |  |  | 
COc1ccccc1N/C(SCc1ccccc1)=C(/C(Cl)=C(Cl)Cl)[N+](=O)[O-] | 15.1 µM (inactive) |  |  |  |  |  | 
C=CCC1CC(n2cc(C)c(=O)[nH]c2=O)OC1CO[Si](C)(C)C(C)(C)C (configuration not stated) | 16 µM (inactive) |  |  |  |  |  | 
CCOC(=O)c1cc2c(OC(C)=O)ccc(OC(C)=O)c2s1 | 2.13 µM (inactive) |  |  |  |  |  | 
C[Si](C)(C)C1(Sc2ccccc2)SCCCS1 |  | 35.2 µM (inactive) | 34.4 µM (inactive) | 34 µM (inactive) | 32 µM (inactive) | 25.8 µM (inactive) | GI50 [7]: 28.4 µM (inactive)
COc1ccc(-n2sc3ncc(-c4ccccc4)cc3c2=O)cc1 | 94 µM (inactive) |  |  |  |  |  | 

SMILES | GI50 [1] | GI50 [2] | GI50 [3] | GI50 [4] | GI50 [5] | GI50 [6] | other results
O/N=C(\C(=N/O)Nc1ccc(-c2ccc(NC(=N/O)/C(=N\O)c3ccccc3)cc2)cc1)c1ccccc1 |  | 19.1 µM (inactive) | 15.7 µM (inactive) | 17.2 µM (inactive) | 22.3 µM (inactive) |  | GI50 [9]: 13.6 µM (inactive); GI50 [7]: 19.3 µM (inactive)
C(/C=N/N=C1NCCCCN1)=N\N=C1NCCCCN1 | > 100 µM (inactive) |  |  |  |  |  | 
O=C(Cc1nc2ccccc2o1)C(=O)Nc1ccccc1C(F)(F)F |  | > 100 µM (inactive) | > 100 µM (inactive) | > 100 µM (inactive) | > 100 µM (inactive) | > 100 µM (inactive) | GI50 [8]: > 100 µM (inactive); GI50 [7]: > 100 µM (inactive)
O=C(O)c1cccc(OCCO)c1 | > 100 µM (inactive) |  |  |  |  |  | 
CN(C)c1ccc(C2CC(c3ccc4ccccc4c3O)=NN2)cc1 (configuration not stated) | 39.1 µM (inactive) |  |  |  |  |  | 
[N-]=[N+]=CC(=O)CCC(N)C(=O)O (configuration not stated) | 34.6 µM (inactive) | 1.09 µM (active) |  | 1.59 µM (inactive) | 1.02 µM (active) | 1.87 µM (inactive) | GI50 [9]: 43.3 µM (inactive); GI50 [7]: 22 µM (inactive)
COc1ccc2ccc([Se]c3ccc4ccc(OC)cc4c3)cc2c1 |  | > 100 µM (inactive) | > 100 µM (inactive) | > 100 µM (inactive) | > 100 µM (inactive) | 64 µM (inactive) | GI50 [9]: 28.9 µM (inactive); GI50 [7]: 43 µM (inactive)
CC(=O)NC(CCCN(Cc1ccccc1)C(=O)N(C)N=O)C(=O)NCc1ccccc1 (configuration not stated) |  | > 100 µM (inactive) | > 100 µM (inactive) | > 100 µM (inactive) | > 100 µM (inactive) | > 100 µM (inactive) | GI50 [8]: > 100 µM (inactive); GI50 [7]: > 100 µM (inactive)
Cc1ccc2c(c1)C1(C)OC(CC(N)C1O)O2 (configuration not stated) |  | > 100 µM (inactive) |  | > 100 µM (inactive) | > 100 µM (inactive) | > 100 µM (inactive) | GI50 [9]: > 100 µM (inactive)
CC(C)(C)C(=O)O[C@H]1C=C[C@@H](O)[C@@H]2[C@H]1[C@@H]1C=C[C@H]2C1 | 3.87 µM (inactive) |  |  |  |  |  | 
C=C(C)C(=O)OC1C[C@H](COC(C)=O)C2CC=C(C)C2C2OC(=O)C(=C)[C@H]12 (some centres not stated) | 4.13 µM (inactive) |  |  |  |  |  | 
COc1ccc(/C=C2\C[C@H]3[C@@H]4CC=C5C[C@@H](OC(C)=O)CC[C@]5(C)[C@H]4CC[C@]3(C)\C2=N\O)cc1OC | > 100 µM (inactive) |  |  |  |  |  | 
CO[C@H]1[C@@H](O)[C@@H](O)O[C@@H](O[C@H]2CC[C@@]3(C)[C@H](CC[C@@H]4[C@@H]3[C@H](O)C[C@]3(C)[C@@H](C5=CC(=O)OC5)CC[C@]43O)C2)[C@@H]1O | 0.151 µM (active) |  |  |  |  |  | 
COC(=O)[C@@H]1C=C[C@H](OC2OC(COC(C)=O)C(OC(C)=O)C(OC(C)=O)C2OC(C)=O)n2c(=O)c3ccccc3c(=O)n21 (some centres not stated) | 4.8 µM (inactive) |  |  |  |  |  | 
CC(C)(C)[Si](C)(C)OCC1OC(n2ccc(=O)[nH]c2=O)C(O[Si](C)(C)C(C)(C)C)[C@]12O[C@@H]2CO (some centres not stated) | 3.9 µM (inactive) |  |  |  |  |  | 
c1ccc(Nc2nn3c(CCCCCCCCc4nnc5sc(Nc6ccccc6)nn45)nnc3s2)cc1 | 31.5 µM (inactive) |  |  |  |  |  | 
CCCC(=O)NC(Nc1ccc(F)cc1)(C(F)(F)F)C(F)(F)F | 80 µM (inactive) |  |  |  |  |  | 
COC(=O)C(=O)C(CC(=O)Nc1cccc(C(F)(F)F)c1)C(=O)OC (configuration not stated) |  |  | > 100 µM (inactive) | > 100 µM (inactive) | > 100 µM (inactive) | > 100 µM (inactive) | 
COc1ccccc1/C=C/c1c(N)ncnc1Nc1cccc(Cl)c1 | 19.7 µM (inactive) |  |  |  |  |  | 
